Results: US20110311533A1 (priority 2010, published 2011)

Target: PrP (Mus musculus, UniProt P04925)
Format: cell-based

PrP, sequence (P04925 23-230 limits assumed): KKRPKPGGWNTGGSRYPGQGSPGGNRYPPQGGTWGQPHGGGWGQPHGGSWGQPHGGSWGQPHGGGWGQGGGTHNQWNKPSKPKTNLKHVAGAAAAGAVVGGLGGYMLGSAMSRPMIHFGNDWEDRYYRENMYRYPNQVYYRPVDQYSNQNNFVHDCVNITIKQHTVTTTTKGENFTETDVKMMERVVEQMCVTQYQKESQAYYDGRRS

Tunicamycin
PrP glycoform pattern: accumulate the non-glycosilated specie of PrP
